Laboratory results: patent publication US20250049735A1, “MEDICINE FOR STEATOHEPATITIS” (The University of Tokyo, priority 2021, published 2025)
Like-named read-outs stand apart in the source and are kept apart here.

Legend:
ATP8B1+CDC50A = biological target: T1, ATP8B1+CDC50A (Homo sapiens, UniProt O43520); assay: Flippase (ATP8B1) assay: incorporation of NBD-phospholipids into CHO-K1 cells; assay type: cell-based; details: 15° C.
T1 construct: expressed in transfected cells; host or cells: CHO-K1 cells (CCL-61, ATCC), transiently transfected with PEI MAX
T1 sequence (O43520 1-1251): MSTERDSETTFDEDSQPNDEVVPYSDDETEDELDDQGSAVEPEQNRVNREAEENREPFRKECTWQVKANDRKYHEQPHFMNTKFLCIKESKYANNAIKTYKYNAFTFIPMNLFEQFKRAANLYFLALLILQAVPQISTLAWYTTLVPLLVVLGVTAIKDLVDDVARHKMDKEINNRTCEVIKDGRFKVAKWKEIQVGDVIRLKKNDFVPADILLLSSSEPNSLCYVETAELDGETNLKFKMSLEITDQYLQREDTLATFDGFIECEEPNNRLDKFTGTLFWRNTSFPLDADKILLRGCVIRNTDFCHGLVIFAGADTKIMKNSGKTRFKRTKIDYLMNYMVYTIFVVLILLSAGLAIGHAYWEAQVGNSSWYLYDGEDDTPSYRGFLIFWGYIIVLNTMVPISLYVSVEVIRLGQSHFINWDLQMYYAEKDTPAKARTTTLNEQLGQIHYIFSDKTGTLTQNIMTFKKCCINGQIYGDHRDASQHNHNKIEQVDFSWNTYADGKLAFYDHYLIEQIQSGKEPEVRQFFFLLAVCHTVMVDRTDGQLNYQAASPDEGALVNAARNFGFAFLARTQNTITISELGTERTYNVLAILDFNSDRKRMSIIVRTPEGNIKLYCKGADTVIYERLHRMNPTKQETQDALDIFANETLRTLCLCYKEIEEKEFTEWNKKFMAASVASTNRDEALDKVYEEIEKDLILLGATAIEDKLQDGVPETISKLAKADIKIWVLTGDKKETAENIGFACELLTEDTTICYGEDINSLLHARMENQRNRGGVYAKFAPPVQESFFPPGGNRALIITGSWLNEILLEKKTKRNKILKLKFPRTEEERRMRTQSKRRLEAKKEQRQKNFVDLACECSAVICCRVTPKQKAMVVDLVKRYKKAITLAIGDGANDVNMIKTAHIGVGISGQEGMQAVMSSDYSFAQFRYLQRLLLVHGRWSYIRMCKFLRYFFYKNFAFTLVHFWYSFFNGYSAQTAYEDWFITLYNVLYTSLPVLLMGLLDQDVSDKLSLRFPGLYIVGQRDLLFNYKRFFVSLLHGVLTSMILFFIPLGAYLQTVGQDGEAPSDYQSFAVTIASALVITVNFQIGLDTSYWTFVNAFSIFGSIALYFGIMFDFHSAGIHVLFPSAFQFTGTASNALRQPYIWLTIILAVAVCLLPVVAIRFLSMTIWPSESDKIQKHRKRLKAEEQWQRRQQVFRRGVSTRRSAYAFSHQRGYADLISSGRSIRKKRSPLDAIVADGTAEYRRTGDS
T1 sequence (Q9NV96 1-361 partner): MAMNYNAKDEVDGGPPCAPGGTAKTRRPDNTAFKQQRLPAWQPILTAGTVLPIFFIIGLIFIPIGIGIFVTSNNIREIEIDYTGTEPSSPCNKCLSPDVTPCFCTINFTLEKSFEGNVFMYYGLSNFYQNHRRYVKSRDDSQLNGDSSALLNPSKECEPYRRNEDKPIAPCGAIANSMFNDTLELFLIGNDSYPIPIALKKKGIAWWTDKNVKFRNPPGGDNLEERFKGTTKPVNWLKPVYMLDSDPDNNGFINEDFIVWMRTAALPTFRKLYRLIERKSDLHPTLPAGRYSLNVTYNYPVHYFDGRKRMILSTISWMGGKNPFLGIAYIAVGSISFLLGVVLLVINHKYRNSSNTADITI
Method: The experiment regarding incorporation of NBD-phospholipids into cells was carried out according to the previous reports (Suzuki et al., Nature 468, 834-838 2010; Takatsu et al., J. Biol. Chem., 289:33543-33556 2014).
To allow CDC50A alone, or ATP8B1 and CDC50A, to express in CHO-K1 cells, the CHO-K1 cells (CCL-61, ATCC, Manassas, VA) were transfected with the plasmids (pShuttle-EV, or pShuttle-ATP8B1-FLAG and pShuttle-HA-CDC50A), using PEI MAX (Polysciences, Warrington, PA). Forty-eight hours after the transfection, the cells were detached from dishes and were collected in PBS containing 5 mM EDTA, and thereafter, the cells were recovered in a precipitate by centrifugation. The cells (2×10^6 cells/sample) were washed and were then equilibrated at 15° C. for 15 minutes in 500 μL of HBSS (14025092, Thermo Fisher Scientific). An equal volume of 1 μg/mL 18:1-06:0 NBD-PC (810132, Avanti Polar Lipids) or 10 μg/mL 12:0 LysoNBD-PC (810128P: Avanti Polar Lipids) was added to the cell suspension, and the obtained mixture was then incubated at 15° C. Thereafter, at each time point, 300 μL of a cell suspension was collected, and was mixed with 300 μl of HBSS (ice cold) containing 5% fatty acid-free BSA (A6003: Sigma-Aldrich) to extract NBD-lipids incorporated into the exoplasmic leaflet of the plasma membrane as well as unincorporated NBD-Lipids.
Next, 10,000 cells were analyzed with a BD FACSCelesta (BD Bioscience, San Jose, CA) to measure the fluorescence of NBD-lipids incorporated into the cytoplasmic leaflet of the plasma membrane. The mean value of the fluorescence intensities per cell was calculated. Propidium iodide (P378: DOJINDO, Kumamoto, Japan) positive cells were excluded from the analysis.

Tax-iIEC-KO mice = details: 8 to 10 weeks of age
Excerpt: Atp8b1^flox/flox mice were mated with villin-Cre/ERT2 transgenic mice (Stock No. 020282; The Jackson Laboratory), and Atp8b1^flox/+; villin-Cre/ERT2 mice in the obtained offsprings were then mated with Atp8b1^flox/flox mice to obtain Tamoxifen-induced, intestinal epithelial cell (IEC)-specific Atp8b1 knockout (Atp8b1Tax-iIEC-KO: Atp8b1^flox/flox; villin-Cre/ERT2) mice (Atp8b1 Tax-iIEC-KO mice). The resulting Atp8b1 Tax-iIEC-KO mice and littermate Atp8b1^flox/flox mice were used for animal experiments.
ALT and AST were determined by automatic measurement with Dri-chem (FUJIFILM, Tokyo, Japan).
The concentrations of choline, betaine, dimethylglycine (N,N-dimethylglycine) and glycerophosphorylcholine (sn-glycero-3-phosphocholine) in plasma were determined by liquid chromatography/tandem mass spectrometry (LC/MS/MS) assay. The sample was mixed with 98-fold volume of ethanol and 1-fold volume of the internal standard (IS) solution (10 μmol/L choline in water, 10 μmol/L glycerophosphorylcholine in water, and 1 μmol/L betaine in water). After vortex mixing, the sample was centrifuged at 21,500×g at 4° C. for 5 minutes. The obtained supernatant was injected into a UHPLC Nexera liquid chromatography system (Shimadzu co., Kyoto, Japan) equipped with an Ascentis Express HILIC column (2.1×50 mm, 2.7 μm, Merck KGaA, Darmstadt, Germany), and was then maintained at 4° C. The analyte was separated from the internal standard by gradient elution of mobile phase A (10 mmol/L ammonium acetate in water) and of mobile phase B (acetonitrile/water mixture) (99:1, v/v)). The gradient elution was carried out under the following conditions: 0-2 min., 82.5% B; 2-4 min., 82.5% to 5% B and 4-7 min. 5% B with a flow rate of 0.6 mL/min. The eluate was directly subjected to electrospray ionization under a positive ion mode using a 5500QTRAP mass spectrometer (Sciex pte. ltd., Toronto, Canada). All target molecules were scanned by selected reaction monitoring (SRM) mode.
Eight-week-old Tax-iIEC-KO mice and control mice were started to be orally administered with a normal saline, or with 50 mg/kg, 150 mg/kg or 500 mg/kg chloride choline, three times a day, and at the same time, the Tax-iIEC-KO mice and the control mice were administered with 1 mg/day of Tamoxifen for 5 consecutive days. Oral administration with a normal saline, or with 50 mg/kg, 150 mg/kg or 500 mg/kg chloride choline, three times a day, was continued, and thereafter, the mice were dissected at 10 weeks of age. The doses of 150 mg/kg and 500 mg/kg were determined by estimating the amount of choline consumed by the 0.3% choline supplemented diet group and the 1% choline supplemented diet group based on the daily food intake of mice.

ATP8B1 KO Caco-2 cells = assay: Cytotoxicity test (LDH release) in ATP8B1 KO Caco-2 cells; details: ATP8B1 KO Caco-2 cell line; 24 hours; various concentrations
Method: (§1) Caco-2 cells were cultured in DMEM (Dulbecco's modified Eagle's medium) (11995-065, Thermo Fisher Scientific) supplemented with 10% fetal bovine serum (10437, Thermo Fisher Scientific), 1% nonessential amino acids (11140-050, Thermo Fisher Scientific), 1% penicillin and streptomycin (15140-122, Thermo Fisher Scientific). The cells were cultured under conditions of 37° C., 5% CO2 and a humidity of 95%.
(§2) 5 mM Edelfosine dissolved in ethanol (CAY-60912-10, Cayman), 10 mg/mL lysophosphatidylcholine (LysoPC) dissolved in water/ethanol (1:1, v/v) (123-03781, FUJIFILM Wako Pure Chemical), and 10 mg/mL lysophosphatidylethanolamine (LysoPE) (L4754, Sigma-Aldrich) dissolved in ethanol were prepared as stock solutions. Caco-2 cells and ATP8B1 KO Caco-2 cells were seeded on 96-well plates at a cell density of 50,000 cells/well, and were then cultured, while replacing the medium with a fresh medium every 2 days. After 7 days of the culture, the cells were cultured for 24 hours in a new medium supplemented with various concentrations of edelfosine, lysophosphatidylcholine and lysophosphatidylethanolamine. Cytotoxicity was measured using, as an indicator, the amount of lactate dehydrogenase (LDH) released from the injured cells into the medium. The amount of LDH in the medium was measured using the Cytotoxicity LDH Assay Kit-WST (CK12, Dojindo) according to the instructions included therewith.

Caco-2 cells = assay: Cytotoxicity test (LDH release) in wild-type Caco-2 cells; details: wild-type Caco-2 cell line; 24 hours; various concentrations
Method: as §1, §2

[1] = to such an extent that extension of autologous liver survival was expected; cited from earlier work
[2] = CHO-K1 cells expressing functional ATP8B1 (ATP8B1+CDC50A)
[3] = CHO-K1 cells without ATP8B1 expression (EV)
[4] = oral 50 mg/kg three times a day
[5] = oral 150 mg/kg three times a day
[6] = oral 500 mg/kg three times a day

18:1-06:0 NBD-PC
incorporation of NBD-lipid into the cells (flow cytometry) (ATP8B1+CDC50A; [2]): incorporated into the cells
incorporation of NBD-lipid into the cells (flow cytometry) (ATP8B1+CDC50A; [3]): incorporated into the cells in reduced amounts

C[N+](C)(C)CCOP(=O)([O-])OCC(O)COC(=O)CCCCCCCCCCCNc1ccc([N+](=O)[O-])c2nonc12 (stereo not shown) [NBD-LysoPC, 12:0 LysoNBD-PC]
incorporation of NBD-lipid into the cells (flow cytometry) (ATP8B1+CDC50A; [2]): incorporated into the cells
incorporation of NBD-lipid into the cells (flow cytometry) (ATP8B1+CDC50A; [3]): incorporated into the cells in reduced amounts

C[N+](C)(C)CCO.[Cl-] [chloride choline]
body weight loss of the Tax-iIEC-KO mice (Tax-iIEC-KO mice; [4]): suppression
concentration of betaine in the liver (Tax-iIEC-KO mice; [4]): recovered up to the same level as those in the control mice
concentration of choline in the liver (Tax-iIEC-KO mice; [4]): recovered up to the same level as those in the control mice
liver injury markers (AST and ALT) (Tax-iIEC-KO mice; [4]): normalization
body weight loss of the Tax-iIEC-KO mice (Tax-iIEC-KO mice; [5]): suppression
concentration of betaine in the liver (Tax-iIEC-KO mice; [5]): recovered up to the same level as those in the control mice
concentration of choline in the liver (Tax-iIEC-KO mice; [5]): recovered up to the same level as those in the control mice
liver injury markers (AST and ALT) (Tax-iIEC-KO mice; [5]): normalization
body weight loss of the Tax-iIEC-KO mice (Tax-iIEC-KO mice; [6]): suppression
concentration of betaine in the liver (Tax-iIEC-KO mice; [6]): recovered up to the same level as those in the control mice
concentration of choline in the liver (Tax-iIEC-KO mice; [6]): recovered up to the same level as those in the control mice
liver injury markers (AST and ALT) (Tax-iIEC-KO mice; [6]): normalization

lysophosphatidylcholine [LPC]
cytotoxicity (LDH released into the medium) (ATP8B1 KO Caco-2 cells): increased cytotoxicity in a dose-dependent manner
cytotoxicity (LDH released into the medium) (Caco-2 cells): did not cause significant cytotoxicity

sodium phenylbutyrate
therapeutic effects on PFIC1 [1]: did not exhibit therapeutic effects on PFIC1
